Assays:
EED (hEED) = EED (hEED) (Homo sapiens, UniProt O75530); assay: SPR (Biacore T200), EED immobilized on CM5 chip; assay type: binding
EZH2 (zEZH2) = EZH2 (zEZH2) (Danio rerio, UniProt Q08BS4); assay: SPR (Biacore T200), EZH2 immobilized on CM5 chip; assay type: binding
[1] = biological target: T1, EZH2 (wild type PRC2 complex) (Homo sapiens, UniProt Q15910); assay: in vitro methyltransferase assay with recombinant PRC2 and histone H3.[…], western blot readout; assay type: biochemical
T1 construct: wild type PRC2 complex (31387, Active Motif); with PRC2 complex (EED, SUZ12)
T1 sequence (Q15910 whole entry): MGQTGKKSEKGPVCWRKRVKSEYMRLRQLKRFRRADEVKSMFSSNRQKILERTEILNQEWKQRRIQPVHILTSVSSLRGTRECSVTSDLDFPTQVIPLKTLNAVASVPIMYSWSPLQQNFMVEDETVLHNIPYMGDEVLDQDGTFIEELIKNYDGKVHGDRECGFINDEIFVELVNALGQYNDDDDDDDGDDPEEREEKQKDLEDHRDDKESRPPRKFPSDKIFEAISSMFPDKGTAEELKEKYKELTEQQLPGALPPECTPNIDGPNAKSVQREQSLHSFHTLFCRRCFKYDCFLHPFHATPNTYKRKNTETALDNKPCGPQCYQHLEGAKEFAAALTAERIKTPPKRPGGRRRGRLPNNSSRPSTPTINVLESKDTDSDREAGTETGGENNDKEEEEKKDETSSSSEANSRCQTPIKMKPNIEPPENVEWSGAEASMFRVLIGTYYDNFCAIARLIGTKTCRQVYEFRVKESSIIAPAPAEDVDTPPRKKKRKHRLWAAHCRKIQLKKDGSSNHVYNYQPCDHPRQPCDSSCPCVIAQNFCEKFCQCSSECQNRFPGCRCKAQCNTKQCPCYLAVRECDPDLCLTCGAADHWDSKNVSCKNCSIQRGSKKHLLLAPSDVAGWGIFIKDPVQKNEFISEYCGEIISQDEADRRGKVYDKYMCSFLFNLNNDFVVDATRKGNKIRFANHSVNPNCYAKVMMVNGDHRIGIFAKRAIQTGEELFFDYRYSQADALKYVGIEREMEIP
T1 sequence (O75530 2-441 partner): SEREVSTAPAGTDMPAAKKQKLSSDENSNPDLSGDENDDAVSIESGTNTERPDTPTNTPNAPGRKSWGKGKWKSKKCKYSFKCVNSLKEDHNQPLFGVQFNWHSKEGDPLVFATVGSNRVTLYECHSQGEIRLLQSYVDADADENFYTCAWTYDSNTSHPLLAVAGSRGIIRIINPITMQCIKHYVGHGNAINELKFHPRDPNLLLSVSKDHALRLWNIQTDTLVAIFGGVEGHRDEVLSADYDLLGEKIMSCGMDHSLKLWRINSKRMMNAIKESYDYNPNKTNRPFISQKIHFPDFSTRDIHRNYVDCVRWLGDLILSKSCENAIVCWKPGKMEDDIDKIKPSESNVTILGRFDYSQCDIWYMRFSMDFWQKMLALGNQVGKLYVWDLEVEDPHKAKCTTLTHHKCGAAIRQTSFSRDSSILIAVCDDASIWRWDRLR
T1 sequence (Q15022 whole entry partner): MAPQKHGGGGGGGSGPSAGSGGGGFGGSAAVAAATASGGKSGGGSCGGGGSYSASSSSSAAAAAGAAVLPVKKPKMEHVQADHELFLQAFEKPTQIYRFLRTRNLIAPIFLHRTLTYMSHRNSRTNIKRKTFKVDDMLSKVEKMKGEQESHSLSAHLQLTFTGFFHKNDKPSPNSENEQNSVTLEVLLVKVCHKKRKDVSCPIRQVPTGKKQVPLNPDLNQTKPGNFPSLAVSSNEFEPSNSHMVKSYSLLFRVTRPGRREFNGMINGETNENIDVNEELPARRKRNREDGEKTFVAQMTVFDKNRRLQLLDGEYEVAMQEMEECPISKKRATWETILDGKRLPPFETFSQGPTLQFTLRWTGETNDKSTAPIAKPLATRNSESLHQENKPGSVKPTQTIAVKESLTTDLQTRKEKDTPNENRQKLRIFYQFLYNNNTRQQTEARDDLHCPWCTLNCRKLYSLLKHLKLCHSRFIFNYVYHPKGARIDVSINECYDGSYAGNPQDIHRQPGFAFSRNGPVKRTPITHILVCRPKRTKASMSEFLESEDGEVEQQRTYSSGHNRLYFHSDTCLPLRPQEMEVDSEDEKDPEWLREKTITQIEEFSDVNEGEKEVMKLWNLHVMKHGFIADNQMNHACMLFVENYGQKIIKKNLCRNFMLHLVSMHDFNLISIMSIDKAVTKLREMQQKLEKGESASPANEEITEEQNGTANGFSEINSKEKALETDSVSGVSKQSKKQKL
T1 sequence (Q09028 2-425 partner): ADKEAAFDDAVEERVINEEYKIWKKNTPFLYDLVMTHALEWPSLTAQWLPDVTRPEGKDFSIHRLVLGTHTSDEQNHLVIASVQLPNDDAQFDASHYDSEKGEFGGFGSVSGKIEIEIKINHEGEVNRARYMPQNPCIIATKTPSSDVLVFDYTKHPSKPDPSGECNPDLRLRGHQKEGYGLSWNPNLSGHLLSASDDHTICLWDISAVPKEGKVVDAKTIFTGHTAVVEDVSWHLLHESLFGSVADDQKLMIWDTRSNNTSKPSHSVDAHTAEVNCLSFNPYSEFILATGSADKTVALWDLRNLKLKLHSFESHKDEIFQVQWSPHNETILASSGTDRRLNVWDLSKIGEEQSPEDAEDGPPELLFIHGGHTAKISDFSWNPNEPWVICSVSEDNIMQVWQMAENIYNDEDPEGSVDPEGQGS
T1 sequence (Q6ZN18 2-517 partner): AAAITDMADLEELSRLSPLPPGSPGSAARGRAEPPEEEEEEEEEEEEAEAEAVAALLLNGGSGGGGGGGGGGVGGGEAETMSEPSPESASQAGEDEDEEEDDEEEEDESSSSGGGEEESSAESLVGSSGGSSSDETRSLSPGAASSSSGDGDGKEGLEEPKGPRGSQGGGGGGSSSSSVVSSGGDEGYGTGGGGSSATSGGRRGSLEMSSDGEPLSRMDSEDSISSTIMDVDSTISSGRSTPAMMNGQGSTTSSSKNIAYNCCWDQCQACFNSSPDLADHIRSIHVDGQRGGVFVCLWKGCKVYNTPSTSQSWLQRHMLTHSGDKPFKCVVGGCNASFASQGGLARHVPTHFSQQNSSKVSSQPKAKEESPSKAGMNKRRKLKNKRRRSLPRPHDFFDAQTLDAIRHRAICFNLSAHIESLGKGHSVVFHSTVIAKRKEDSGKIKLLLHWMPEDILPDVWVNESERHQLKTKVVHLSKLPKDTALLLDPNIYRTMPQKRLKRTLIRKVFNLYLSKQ

EZH2 (zEZH2), sequence (Q08BS4 whole entry): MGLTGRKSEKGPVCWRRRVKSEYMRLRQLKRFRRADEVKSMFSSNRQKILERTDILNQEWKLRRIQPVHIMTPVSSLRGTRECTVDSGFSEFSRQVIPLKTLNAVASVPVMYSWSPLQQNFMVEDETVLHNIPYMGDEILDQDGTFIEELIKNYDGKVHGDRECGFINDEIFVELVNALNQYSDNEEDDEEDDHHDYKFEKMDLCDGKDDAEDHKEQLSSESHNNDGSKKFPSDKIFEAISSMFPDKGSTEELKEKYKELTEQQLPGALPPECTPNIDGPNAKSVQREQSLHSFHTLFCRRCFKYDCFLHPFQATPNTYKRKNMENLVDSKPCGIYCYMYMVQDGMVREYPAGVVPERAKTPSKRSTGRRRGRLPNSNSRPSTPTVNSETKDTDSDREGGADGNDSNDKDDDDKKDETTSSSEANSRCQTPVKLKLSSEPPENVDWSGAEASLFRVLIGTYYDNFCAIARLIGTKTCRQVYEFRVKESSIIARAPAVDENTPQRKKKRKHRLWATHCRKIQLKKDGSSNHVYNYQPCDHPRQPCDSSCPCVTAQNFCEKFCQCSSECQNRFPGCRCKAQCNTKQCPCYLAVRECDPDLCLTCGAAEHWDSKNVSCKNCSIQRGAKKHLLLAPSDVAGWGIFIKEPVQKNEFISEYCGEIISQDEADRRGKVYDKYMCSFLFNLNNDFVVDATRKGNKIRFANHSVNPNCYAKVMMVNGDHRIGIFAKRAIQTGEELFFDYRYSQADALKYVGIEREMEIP
EED (hEED), sequence (O75530 2-441): as the sequence (O75530 2-441 partner) above

`Cc1coc2c1C(=O)C(=O)c1c-2ccc2c(C)cccc12` [Tan I, Tanshinone I] was tested, and the Kd (EED (hEED)) was 94.5 µM, the Kd (EZH2 (zEZH2)) was 29.4 µM and the “in vitro methyltransferase assay with recombinant PRC2 and histone H3.3, western” value [1] was ~ 5 μM.

From publication PMC8171091, “Tanshinone I, a new EZH2 inhibitor restricts normal and malignant hematopoiesis through upregulation of MMP9 and ABCG2” (Theranostics, 2021)
